{"source": "patent US11571437B2", "about": "“Methods of treating cancer using PRMT5 inhibitors” (Janssen Pharmaceutica NV, priority 2019, dated 2023)", "key": {"[1]": {"assay": "Phase 1 open-label study Part 1: safety and tolerability", "type": "in vivo, human", "text": "(§1) This is a multi-part, Phase 1, open-label, multicenter study to evaluate the safety, pharmacokinetics, pharmacodynamics, and preliminary clinical activity of JNJ-64619178 monotherapy administered either to adult human subjects with advanced solid tumors or B cell non-Hodgkin lymphomas who previously received or are ineligible for standard treatment options, or to adult subjects with lower risk myelodysplastic syndromes (MDS) who are red blood cell (RBC) transfusion-dependent and relapsed or refractory to erythropoiesis-stimulating agent (ESA) treatment.\nFifteen (15) participants with various solid tumors (e.g., breast cancer, prostate cancer, salivary duct carcinoma, adenoid cystic carcinoma) were dosed in the “Part 1” study described below with JNJ-64619178 at 0.5 mg (1′ cohort), 1 mg (2nd cohort), 2 mg (3rd cohort) and 4 mg (4th cohort) under a schedule of 14 days continuous dose administration followed by a 7-day rest period (14 days on/7 days off in a 21-day cycle). Average treatment duration ranged from 4 weeks in the 4th cohort (4 mg 14 days on/7 days off) to 6 months in the 2nd cohort (1 mg 14 days on/7 days off). […] The Part 1 study is ongoing.\n(§2) Fifty-four (54) participants with various solid tumors (e.g., breast cancer, prostate cancer, salivary duct carcinoma, adenoid cystic carcinoma, and uveal melanoma) were dosed in the “Part 1” study described below with JNJ-64619178 at 0.5 mg (1st cohort), 1 mg (2nd cohort), 2 mg (3rd cohort), 4 mg (4th cohort), and 3 mg (5th cohort) under a schedule of 14 days continuous dose administration followed by a 7-day rest period (14 days on/7 days off in a 21-day cycle); or at 1 mg (6th cohort) or 2 mg (7th cohort) under a schedule of 21 days continuous dosing. Average treatment duration was 3 months, with a range of 0.4 to 22.4 months. […] The maximum tolerated dose was considered 3 mg on the 14 days on/7 days off schedule or 2 mg on the continuous dosing schedule. […] The participant with confirmed PR was from cohort 2.\nThe JNJ-64619178 starting dose is based on toxicology results obtained using no observed adverse effect level (NOAEL) dose, more conservative than the highest non-severely toxic dose (HNSTD) in the dog as the most sensitive species. Using a default safety factor of 6 (used for HNSTD in non-rodents), a starting dose of 0.54 mg once daily (QD) was obtained, which was rounded to 0.5 mg QD. A single dose of the study drug will be administered in the pharmacokinetic run-in phase for Part 1. During the treatment phase, the study drug will be administered for 14 consecutive days followed by 7 days of rest (14 days on/7 days off dose administration) on a 21 day cycle. Alternative dosing schedules (e.g., continuous dosing, 7 days on/7 days off, and 7 days on/14 days off) are also evaluated.\nThe study was initiated with dose Schedule A (14 days on/7 days off dose administration on a 21-day cycle). Table B below provides an example of possible dose escalation."}, "[2]": {"system": "NCI-H1048 human xenograft model of SCLC", "assay": "NCI-H1048 human SCLC xenograft, once daily oral dosing up to 28 days (Study 1)", "type": "in vivo, mice", "protocol": "JNJ-64619178 was tested for antitumor activity in the NCI-H1048 human xenograft model of SCLC. Male mice were subcutaneously implanted with NCI-H1048 cells, and tumors were allowed to grow for 14 days, reaching 174±51 mm^3 in volume, when treatment was started. Mice were administered once daily oral doses of JNJ-64619178 at 1, 3, and 10 mg/kg or 20% hydroxypropyl-β-cyclodextrin (HP-β-CD) vehicle control for up to 28 days.\nFIG. 1 details the individual tumor regrowth observed following cessation of once daily treatment with 10 mg/kg JNJ 64619178 or vehicle control. In all 8 mice treated with 10 mg/kg JNJ 64619178, tumor regrowth began approximately 14 days after cessation of dosing, with tumors reaching ethical limits by Day 92 postimplantation."}, "[3]": {"target": "PRMT5/MEP50 (Homo sapiens, UniProt O14744)", "sequence (O14744 whole entry)": "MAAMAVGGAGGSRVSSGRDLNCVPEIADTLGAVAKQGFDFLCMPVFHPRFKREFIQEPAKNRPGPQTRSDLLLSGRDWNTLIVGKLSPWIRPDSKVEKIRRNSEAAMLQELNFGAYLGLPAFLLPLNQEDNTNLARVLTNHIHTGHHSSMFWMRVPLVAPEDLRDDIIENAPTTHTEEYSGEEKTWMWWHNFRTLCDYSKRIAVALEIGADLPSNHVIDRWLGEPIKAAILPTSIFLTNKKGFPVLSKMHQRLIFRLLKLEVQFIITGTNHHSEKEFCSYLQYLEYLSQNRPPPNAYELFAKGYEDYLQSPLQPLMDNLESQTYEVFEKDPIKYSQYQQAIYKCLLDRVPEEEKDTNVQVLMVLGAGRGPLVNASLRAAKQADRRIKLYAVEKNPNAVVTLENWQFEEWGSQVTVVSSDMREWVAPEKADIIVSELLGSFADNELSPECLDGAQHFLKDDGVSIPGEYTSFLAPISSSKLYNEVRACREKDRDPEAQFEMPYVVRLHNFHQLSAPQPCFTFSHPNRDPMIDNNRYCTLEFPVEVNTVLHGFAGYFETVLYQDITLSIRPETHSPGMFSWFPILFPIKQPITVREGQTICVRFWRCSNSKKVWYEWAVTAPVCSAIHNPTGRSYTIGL", "sequence (Q9BQA1 whole entry partner)": "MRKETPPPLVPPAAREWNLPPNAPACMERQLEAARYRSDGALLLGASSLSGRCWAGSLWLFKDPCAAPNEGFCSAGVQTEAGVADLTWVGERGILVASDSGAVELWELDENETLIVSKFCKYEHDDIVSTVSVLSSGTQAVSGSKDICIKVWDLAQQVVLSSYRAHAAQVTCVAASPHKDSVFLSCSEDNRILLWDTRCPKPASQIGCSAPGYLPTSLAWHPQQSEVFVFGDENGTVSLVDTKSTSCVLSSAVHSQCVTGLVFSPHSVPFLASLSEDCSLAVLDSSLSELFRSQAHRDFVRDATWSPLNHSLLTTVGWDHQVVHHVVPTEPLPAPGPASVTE", "assay": "surface plasmon resonance binding studies", "text": "(§3) This unique mode-of-binding translates into very potent and time-dependent PRMT5 enzyme inhibition."}, "[4]": {"target": "PRMT5/MEP50 complex (Homo sapiens, UniProt O14744)", "sequence (O14744 whole entry)": "as the sequence (O14744 whole entry) above", "sequence (Q9BQA1 whole entry partner)": "as the sequence (Q9BQA1 whole entry partner) above", "assay": "in vitro thermal shift experiments", "type": "binding", "text": "as §3"}, "[5]": {"system": "NCI H1048 human SCLC xenografts", "assay": "second NCI-H1048 human SCLC mouse xenograft study, 10 days dosing and 10 days regrowth observation", "type": "in vivo, mice", "conditions": "10 mg/kg oral gavage for 10 days"}, "[6]": {"system": "NCI-H1048 xenografts", "assay": "NCI-H1048 xenograft, continuous versus 7+/7- dosing (Study 3)", "type": "in vivo, mice", "conditions": "10 mg/kg once daily oral, at day 28", "protocol": "FIG. 4 is a line graph showing extended tumor growth inhibition using a dosing cessation of the compound of the disclosure in the NCI-H1048 tumor model at a JNJ64619178 dosage of 10 mg/kg for either 28 consecutive days or for two cycles of 7 daily drug treatment followed by 7 days dosing holidays (7+/7 −, 2 cycles).\nIn all xenografts studies, the average tumor volume at treatment initiation was about 150 mm^3 and mean tumor volumes (mm^3)±SEM of each group were graphed over time as indicated in FIG. 4."}, "[7]": {"system": "various solid tumors", "assay": "Phase 1 open-label study Part 1: preliminary clinical activity (RECIST)", "type": "in vivo, human", "text": "as §1, §2\n(§4) Two provisional RP2Ds were selected: 1.5 mg intermittently and 1 mg QD."}, "[8]": {"assay": "Phase 1 open-label study Part 1: plasma pharmacokinetics", "type": "in vivo", "conditions": "human plasma, oral capsules", "protocol": "as §4\nThe pharmacokinetic run-in phase will evaluate the single-dose pharmacokinetics of JNJ 64619178 prior to subsequent daily dose administration in the treatment phase. Subjects will be administered a single-dose of study drug at the site on Day 1 and remain at site for at least 6 hours for pharmacokinetic assessments. The single-dose of study drug will be followed by a 6 day rest period (i.e., Days 2 to 7 [a range of 5 to 10 days is allowed]) during which pharmacokinetic blood sample and ECG collection will be conducted. Certain subjects in Part 1 may not participate in the pharmacokinetic run-in phase.\nThe treatment phase begins on Cycle 1 Day 1 with the administration of the study drug and continues until the completion of the end-of-treatment visit. During the treatment phase, multiple-dose pharmacokinetics of JNJ-64619178 will be evaluated. On Cycle 1 Day 14, subjects in Part 1 will remain at site for at least 8 hours after the study drug administration for pharmacokinetic and ECG assessments. Study drug should be administered at approximately the same time each day for accurate evaluation of the pharmacokinetics of JNJ 64619178."}, "[9]": {"system": "plasma SDMA", "assay": "Phase 1 open-label study Part 1: target engagement by plasma SDMA", "type": "in vivo, human", "conditions": "even with intermittent dosing", "protocol": "as §4"}}}
{"smiles": "Nc1nc2cc(CC[C@H]3C[C@@H](n4ccc5c(N)ncnc54)[C@H](O)[C@@H]3O)ccc2cc1Br", "note": "[JNJ-64619178, (1S,2R,3S,5R)-3-(2-(2-amino-3-bromoquinolin-7-yl)ethyl)-5-(4-amino-7H-pyrrolo[2,3-d]pyrimidin-7-yl)cyclopentane-1,2-diol]", "values": [{"measurement": "maximum tolerated dose", "setting": "[1]; 14 days on/7 days off schedule", "result": 3, "unit": "mg"}, {"measurement": "maximum tolerated dose", "setting": "[1]; continuous dosing schedule", "result": 2, "unit": "mg"}, {"measurement": "dose-limiting toxicities", "setting": "[1]; human, in vivo", "result": "thrombocytopenia of Grade 4 or of Grade 3 lasting longer than 7 days"}, {"measurement": "grade of non-hematologic toxicities", "setting": "[1]; human, in vivo", "result": "Grade 1 or 2 except for one case of Grade 3 vomiting lasting 24 hours"}, {"measurement": "adverse events observed in >20% of participants", "setting": "[1]; in vivo", "result": "gastrointestinal disorders (nausea, vomiting, diarrhea), hematologic disorders (thrombocytopenia, anemia, neutropenia), general disorders (fatigue and asthenia) and dysgeusia"}, {"measurement": "dose limiting toxicities (DLTs)", "setting": "[1]; in vivo", "result": "No dose limiting toxicities (DLTs) were observed"}, {"measurement": "most frequently reported adverse events", "setting": "[1]; in vivo", "result": "hematologic, gastrointestinal and dermatologic"}, {"measurement": "time complete regression was maintained postdose", "setting": "[2]; 10 mg/kg once daily oral", "result": "up to 14 days"}, {"measurement": "tumor regression", "setting": "[2]; 10 mg/kg once daily oral", "result": "complete regression of tumors"}, {"measurement": "tumor growth inhibition (TGI)", "setting": "[2]; 10 mg/kg once daily oral, Day 42 postimplantation, vs vehicle control", "result": 99.1, "unit": "%"}, {"measurement": "start of tumor regrowth after cessation of dosing", "setting": "[2]; 10 mg/kg once daily, all 8 mice", "result": "approximately 14 days"}, {"measurement": "antitumor activity (statistical significance) compared with vehicle control", "setting": "[2]; 1, 3, and 10 mg/kg once daily oral", "result": "statistically significant antitumor activity"}, {"measurement": "antitumor activity (biological significance)", "setting": "[2]; 3 and 10 mg/kg once daily oral", "result": "biologically significant antitumor activity"}, {"measurement": "binding kinetics", "setting": "[3]", "result": "slow off-rate binding kinetics"}, {"measurement": "additional stabilization of the PRMT5/MEP50 complex in comparison to SAM binding", "setting": "[4]", "result": 12, "unit": "degrees Celsius"}, {"measurement": "tumor growth inhibition (TGI)", "setting": "[5]", "result": "up to 72.9%"}, {"measurement": "tumor growth inhibition (TGI) compared to vehicle", "setting": "[6]; 28 consecutive days", "result": 62, "unit": "%"}, {"measurement": "tumor growth inhibition (TGI) compared to vehicle", "setting": "[6]; two cycles of 7 days on/7 days off (7+/7-)", "result": 63, "unit": "%"}, {"measurement": "best overall response: confirmed partial response", "setting": "[7]; 1 of 45 participants evaluable for efficacy, from cohort 2", "result": 4.3, "unit": "%"}, {"measurement": "best overall response: progressive disease", "setting": "[7]; 20 of 45 participants evaluable for efficacy", "result": 43, "unit": "%"}, {"measurement": "best overall response: stable disease", "setting": "[7]; 24 of 45 participants evaluable for efficacy", "result": 52, "unit": "%"}, {"measurement": "response (RECIST) in ACC", "setting": "[7]; adenoid cystic carcinoma", "result": "confirmed partial response"}, {"measurement": "duration of stable disease", "setting": "[7]; patients with ACC, prostate cancer, salivary gland carcinomas, and other tumor types", "result": "greater than 6 months"}, {"measurement": "plasma Cmax and AUC dose dependence", "setting": "[8]", "result": "linearly dose-proportional"}, {"measurement": "target engagement as measured by plasma SDMA", "setting": "[9]", "result": "Robust target engagement"}]}
